Laboratory results published in PubChem BioAssay AID256 (DTP/NCI, 2004).
Several values for one entry are separate records, joined by “and”; a condition that tells them apart may be missing. Equal values may be shown once. Inconclusive results and toxic doses are left out.

System: CD2F1 mice, L1210 leukemia ip, survival T/C
Assay: NCI In Vivo Anticancer Drug Screen. Data for tumor model L1210 Leukemia (intraperitoneal) in CD2F1 (CDF1) mice
Details: higher = longer survival
Summary of the method: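 Each value reflects a quotient of treated over vehicle control outcomes in mice with a transplanted tumor.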

[1] = endpoint: mean survival time, dose: 100.0 mg/kg/injection, schedule: Q04DX003 (ip), vehicle: saline with Tween-80
[2] = endpoint: mean survival time, dose: 200.0 mg/kg/injection, schedule: Q04DX003 (ip), vehicle: saline with Tween-80
[3] = endpoint: mean survival time, dose: 100.0 mg/kg/injection, schedule: Q01DX001 (ip), vehicle: saline with Tween-80
[4] = endpoint: mean survival time, dose: 200.0 mg/kg/injection, schedule: Q01DX001 (ip), vehicle: saline with Tween-80
[5] = endpoint: mean survival time, dose: 400.0 mg/kg/injection, schedule: Q01DX001 (ip), vehicle: saline with Tween-80

SMILES: COC(=O)C1(F)C(=O)NC(=O)NC1OC (stereo not given)
- T/C (endpoint: median survival time, dose: 50.0 mg/kg/injection, schedule: Q01DX005 (ip), vehicle: Klucel (hydroxypropylcellulose) (HPC)): 124 % of control
- T/C (endpoint: median survival time, dose: 50.0 mg/kg/injection, schedule: Q01DX005 (ip), vehicle: saline with Tween-80): 124 % of control
- T/C (endpoint: median survival time, dose: 50.0 mg/kg/injection, schedule: Q01DX009 (ip), vehicle: Klucel (hydroxypropylcellulose) (HPC)): 121 % of control
- T/C (endpoint: median survival time, dose: 72.0 mg/kg/injection, schedule: Q01DX009 (ip), vehicle: Klucel (hydroxypropylcellulose) (HPC)): 153 % of control
- T/C (endpoint: median survival time, dose: 100.0 mg/kg/injection, schedule: Q01DX005 (ip), vehicle: saline with Tween-80): 156 % of control
- T/C (endpoint: median survival time, dose: 100.0 mg/kg/injection, schedule: Q01DX009 (ip), vehicle: Klucel (hydroxypropylcellulose) (HPC)): 158 % of control and 176 % of control
- T/C (endpoint: median survival time, dose: 120.0 mg/kg/injection, schedule: Q01DX009 (ip), vehicle: Klucel (hydroxypropylcellulose) (HPC)): 172 % of control
- T/C (endpoint: median survival time, dose: 200.0 mg/kg/injection, schedule: Q01DX005 (ip), vehicle: Klucel (hydroxypropylcellulose) (HPC)): 183 % of control
- T/C (endpoint: median survival time, dose: 200.0 mg/kg/injection, schedule: Q01DX005 (ip), vehicle: saline with Tween-80): 178 % of control
- T/C (endpoint: median survival time, dose: 200.0 mg/kg/injection, schedule: Q01DX009 (ip), vehicle: Klucel (hydroxypropylcellulose) (HPC)): 159 % of control and 197 % of control and 238 % of control
- T/C (endpoint: median survival time, dose: 400.0 mg/kg/injection, schedule: Q01DX005 (ip), vehicle: Klucel (hydroxypropylcellulose) (HPC)): 185 % of control
- T/C (endpoint: median survival time, dose: 400.0 mg/kg/injection, schedule: Q01DX005 (ip), vehicle: saline with Tween-80): 112 % of control
- T/C (endpoint: median survival time, dose: 800.0 mg/kg/injection, schedule: Q01DX005 (ip), vehicle: Klucel (hydroxypropylcellulose) (HPC)): 104 % of control
- T/C (endpoint: median survival time, dose: 800.0 mg/kg/injection, schedule: Q01DX005 (ip), vehicle: saline with Tween-80): 109 % of control
- T/C (endpoint: median survival time, dose: 800.0 mg/kg/injection, schedule: Q01DX009 (ip), vehicle: Klucel (hydroxypropylcellulose) (HPC)): 108 % of control

SMILES: [C-]#[O+].[C-]#[O+].[C-]#[O+].[C-]#[O+].[CH3][Sn]([CH3])[CH3].[Co]
- T/C (endpoint: mean survival time, dose: 0.02 mg/kg/injection, schedule: Q01DX009 (ip), vehicle: saline): 100 % of control
- T/C (endpoint: mean survival time, dose: 0.04 mg/kg/injection, schedule: Q01DX009 (ip), vehicle: saline): 102 % of control
- T/C (endpoint: mean survival time, dose: 0.09 mg/kg/injection, schedule: Q01DX009 (ip), vehicle: saline): 100 % of control and 105 % of control
- T/C (endpoint: mean survival time, dose: 0.39 mg/kg/injection, schedule: Q01DX009 (ip), vehicle: saline): 86 % of control
- T/C (endpoint: mean survival time, dose: 0.78 mg/kg/injection, schedule: Q01DX009 (ip), vehicle: saline): 107 % of control

SMILES: CCN(CC)CCNc1c2ccc(Cl)cc2nc2c1c(C)nn2C
- T/C [1]: 95 % of control
- T/C [2]: 100 % of control
- T/C (endpoint: mean survival time, dose: 400.0 mg/kg/injection, schedule: Q04DX003 (ip), vehicle: saline with Tween-80): 100 % of control

SMILES: O=c1[nH]cc(NCCCCc2ccccc2)c(=O)[nH]1
- T/C [3]: 94 % of control
- T/C [4]: 95 % of control
- T/C [5]: 92 % of control

SMILES: C1=CC=CN(c2ccccc2)C=C1
- T/C (endpoint: mean survival time, dose: 100.0 mg/kg/injection, schedule: Q04DX003 (ip), vehicle: other): 106 % of control
- T/C (endpoint: mean survival time, dose: 200.0 mg/kg/injection, schedule: Q04DX003 (ip), vehicle: other): 95 % of control
- T/C (endpoint: mean survival time, dose: 400.0 mg/kg/injection, schedule: Q04DX003 (ip), vehicle: other): 97 % of control

SMILES: Cc1cc(N(C)C)c(C(C)C)cc1O (tested in a mixture with another compound)
- T/C (endpoint: mean survival time, dose: 32.0 micrograms/kg/injection, schedule: Q04DX003 (ip), vehicle: saline): 104 % of control
- T/C (endpoint: mean survival time, dose: 63.0 micrograms/kg/injection, schedule: Q01DX001 (ip), vehicle: saline): 112 % of control
- T/C (endpoint: mean survival time, dose: 63.0 micrograms/kg/injection, schedule: Q04DX003 (ip), vehicle: saline): 98 % of control
- T/C (endpoint: mean survival time, dose: 125.0 micrograms/kg/injection, schedule: Q01DX001 (ip), vehicle: saline): 112 % of control
- T/C (endpoint: mean survival time, dose: 125.0 micrograms/kg/injection, schedule: Q04DX003 (ip), vehicle: saline): 101 % of control

SMILES: O=C(O)/C=C/C=C/C(=O)O
- T/C [3]: 102 % of control and 101 % of control
- T/C [4]: 104 % of control and 93 % of control
- T/C [5]: 100 % of control and 101 % of control

SMILES: Cc1ccc(S(=O)[O-])cc1.[C-]#[O+].[C-]#[O+].[Fe+6].[c-]1[c-][c-][cH-][c-]1
- T/C (endpoint: mean survival time, dose: 50.0 mg/kg/injection, schedule: Q04DX002 (ip), vehicle: saline with Tween-80): 97 % of control
- T/C (endpoint: mean survival time, dose: 200.0 mg/kg/injection, schedule: Q04DX002 (ip), vehicle: saline with Tween-80): 108 % of control

SMILES: CCOC(=O)C1(C(=O)OCC)CCC(O)N1C(=O)c1ccccc1[N+](=O)[O-] (stereo not given)
- T/C (endpoint: mean survival time, dose: 100.0 mg/kg/injection, schedule: Q01DX001 (ip), vehicle: Klucel (hydroxypropylcellulose) (HPC)): 100 % of control
- T/C (endpoint: mean survival time, dose: 200.0 mg/kg/injection, schedule: Q01DX001 (ip), vehicle: Klucel (hydroxypropylcellulose) (HPC)): 96 % of control
- T/C (endpoint: mean survival time, dose: 400.0 mg/kg/injection, schedule: Q01DX001 (ip), vehicle: Klucel (hydroxypropylcellulose) (HPC)): 92 % of control

SMILES: O=C1C=CC(=O)N1c1cc(Cl)ccc1Cl
- T/C [1]: 93 % of control
- T/C [2]: 93 % of control

SMILES: COc1cc2c(cc1C(C)C)CCC1C(C)(C(=O)O)CCCC21C (stereo not given)
- T/C [3]: 100 % of control
- T/C (endpoint: mean survival time, dose: 100.0 mg/kg/injection, schedule: Q01DX009 (ip), vehicle: saline sonified): 95 % of control
- T/C [4]: 97 % of control
- T/C (endpoint: mean survival time, dose: 200.0 mg/kg/injection, schedule: Q01DX009 (ip), vehicle: saline sonified): 97 % of control
- T/C [5]: 102 % of control
- T/C (endpoint: mean survival time, dose: 400.0 mg/kg/injection, schedule: Q01DX009 (ip), vehicle: saline sonified): 96 % of control
